Where a name gives a salt, the structure may show the parent alone.

A short description of one series: Aqueous solubility. The class given is physicochemical. To be noted: for Aqueous Solubility / solubility: water; for Times Increased of Aqueous Solubility (Comp. vs. Rapa): ratio of compound solubility to Rapa solubility.

`CO[C@H]1C[C@@H]2CC[C@@H](C)[C@@](O)(O2)C(=O)C(=O)N2CCCC[C@H]2C(=O)O[C@H]([C@H](C)C[C@@H]2CC[C@@H](O)[C@H](OC)C2)CC(=O)[C@H](C)/C=C(\C)[C@@H](OC(=O)C[n+]2ccccc2)[C@@H](OC)C(=O)[C@H](C)C[C@H](C)/C=C/C=C/C=C/1C` (as salt: ammonium) [Compound 10, Rapa-31-ester of 2-(pyridinium-1-yl)acetic Acid] displayed a melting point of 140 to 142 °C.

On to `CO[C@H]1C[C@@H]2CC[C@@H](C)[C@@](O)(O2)C(=O)C(=O)N2CCCC[C@H]2C(=O)O[C@H]([C@H](C)C[C@@H]2CC[C@@H](O)[C@H](OC)C2)CC(=O)[C@H](C)/C=C(\C)[C@@H](OC(=O)C[n+]2ccccc2)[C@@H](OC)C(=O)[C@H](C)C[C@H](C)/C=C/C=C/C=C/1C` [Compound 10, Rapa-31-ester of 2-(pyridinium-1-yl)acetic Acid], for which, in “Aqueous solubility”, the “Aqueous Solubility” value was 52600 µg/mL and the solubility is 62000 µg/mL.

Turning to `CO[C@H]1C[C@@H]2CC[C@@H](C)[C@@](O)(O2)C(=O)C(=O)N2CCCC[C@H]2C(=O)O[C@H]([C@H](C)C[C@@H]2CC[C@@H](O)[C@H](OC)C2)CC(=O)[C@H](C)/C=C(\C)[C@@H](OC(=O)C[n+]2cccc(C)c2)[C@@H](OC)C(=O)[C@H](C)C[C@H](C)/C=C/C=C/C=C/1C` (as salt: ammonium) [Compound 9, Rapa-31-ester of 2-(3-methylpyridinium-1-yl)acetic Acid], the melting point was 138 to 140 °C.

As to `CO[C@H]1C[C@@H]2CC[C@@H](C)[C@@](O)(O2)C(=O)C(=O)N2CCCC[C@H]2C(=O)O[C@H]([C@H](C)C[C@@H]2CC[C@@H](OC(=O)C[n+]3cccc(O)c3)[C@H](OC)C2)CC(=O)[C@H](C)/C=C(\C)[C@@H](O)[C@@H](OC)C(=O)[C@H](C)C[C@H](C)/C=C/C=C/C=C/1C` [Compound 5, Rapa-42-ester of 2-(3-hydroxypyridinium-1-yl)acetic Acid], in “Aqueous solubility”, the “Times Increased of Aqueous Solubility (Comp. vs. Rapa)” value (“Times Increased of Aqueous Solubility” below) came out at 4 and the solubility came to 10 µg/mL.

Turning to `CO[C@H]1C[C@@H]2CC[C@@H](C)[C@@](O)(O2)C(=O)C(=O)N2CCCC[C@H]2C(=O)O[C@H]([C@H](C)C[C@@H]2CC[C@@H](OC(=O)C[n+]3ccc(C)cc3)[C@H](OC)C2)CC(=O)[C@H](C)/C=C(\C)[C@@H](O)[C@@H](OC)C(=O)[C@H](C)C[C@H](C)/C=C/C=C/C=C/1C` [Compound 6, Rapa-42-ester of 2-(4-methylpyridinium-1-yl)acetic Acid], in the series “Aqueous solubility”, the “Times Increased of Aqueous Solubility” value is listed as 2308 and the concentration in solution (solubility) was 6000 µg/mL.

With `CO[C@H]1C[C@@H]2CC[C@@H](C)[C@@](O)(O2)C(=O)C(=O)N2CCCC[C@H]2C(=O)O[C@H]([C@H](C)C[C@@H]2CC[C@@H](OC(=O)C[n+]3ccc(C)cc3)[C@H](OC)C2)CC(=O)[C@H](C)/C=C(\C)[C@@H](O)[C@@H](OC)C(=O)[C@H](C)C[C@H](C)/C=C/C=C/C=C/1C` (as salt: ammonium) [Compound 6, Rapa-42-ester of 2-(4-methylpyridinium-1-yl)acetic Acid], the melting point is 157 to 160 °C.

With `CO[C@H]1C[C@@H]2CC[C@@H](C)[C@@](O)(O2)C(=O)C(=O)N2CCCC[C@H]2C(=O)O[C@H]([C@H](C)C[C@@H]2CC[C@@H](OC(=O)C[n+]3cccc(C)c3)[C@H](OC)C2)CC(=O)[C@H](C)/C=C(\C)[C@@H](O)[C@@H](OC)C(=O)[C@H](C)C[C@H](C)/C=C/C=C/C=C/1C` [Compound 4, Rapa-42-ester of 2-(3-methylpyridinium-1-yl)acetic Acid], in the series “Aqueous solubility”, the “Times Increased of Aqueous Solubility” value stood at 2577 and the solubility is 6700 µg/mL.

In turn, `CO[C@H]1C[C@@H]2CC[C@@H](C)[C@@](O)(O2)C(=O)C(=O)N2CCCC[C@H]2C(=O)O[C@H]([C@H](C)C[C@@H]2CC[C@@H](O)[C@H](OC)C2)CC(=O)[C@H](C)/C=C(\C)[C@@H](OC(=O)C[n+]2cscc2C)[C@@H](OC)C(=O)[C@H](C)C[C@H](C)/C=C/C=C/C=C/1C` (as salt: ammonium) [Compound 8, Rapa-31-ester of 2-(4-methylthiazolium-3-yl)acetic Acid] showed a melting point of 130 to 132 °C.

`CO[C@H]1C[C@@H]2CC[C@@H](C)[C@@](O)(O2)C(=O)C(=O)N2CCCC[C@H]2C(=O)O[C@H]([C@H](C)C[C@@H]2CC[C@@H](OC(=O)C[n+]3cscc3C)[C@H](OC)C2)CC(=O)[C@H](C)/C=C(\C)[C@@H](O)[C@@H](OC)C(=O)[C@H](C)C[C@H](C)/C=C/C=C/C=C/1C` (as salt: ammonium) [Compound 2, Rapa-42-ester of 2-(4-methylthiazolium-3-yl)acetic Acid]: the melting point fell in the range of 130 to 133 °C.

Regarding `CO[C@H]1C[C@@H]2CC[C@@H](C)[C@@](O)(O2)C(=O)C(=O)N2CCCC[C@H]2C(=O)O[C@H]([C@H](C)C[C@@H]2CC[C@@H](O)[C@H](OC)C2)CC(=O)[C@H](C)/C=C(\C)[C@@H](OC(=O)C[n+]2cscc2C)[C@@H](OC)C(=O)[C@H](C)C[C@H](C)/C=C/C=C/C=C/1C` [Compound 8, Rapa-31-ester of 2-(4-methylthiazolium-3-yl)acetic Acid], in the series “Aqueous solubility”, the “Times Increased of Aqueous Solubility” value was found to be 3846 and the solubility was 10000 µg/mL.

For the compound `CO[C@H]1C[C@@H]2CC[C@@H](C)[C@@](O)(O2)C(=O)C(=O)N2CCCC[C@H]2C(=O)O[C@H]([C@H](C)C[C@@H]2CC[C@@H](O)[C@H](OC)C2)CC(=O)[C@H](C)/C=C(\C)[C@@H](OC(=O)C[n+]2ccc(C)cc2)[C@@H](OC)C(=O)[C@H](C)C[C@H](C)/C=C/C=C/C=C/1C` [Compound 11, Rapa-31-ester of 2-(4-methylpyridinium-1-yl)acetic Acid], in “Aqueous solubility”, the “Aqueous Solubility” value amounted to 62500 µg/mL and the solubility was found to be 62000 µg/mL.

In turn, `CO[C@H]1C[C@@H]2CC[C@@H](C)[C@@](O)(O2)C(=O)C(=O)N2CCCC[C@H]2C(=O)O[C@H]([C@H](C)C[C@@H]2CC[C@@H](O)[C@H](OC)C2)CC(=O)[C@H](C)/C=C(\C)[C@@H](OC(=O)C[n+]2ccc(C)cc2)[C@@H](OC)C(=O)[C@H](C)C[C@H](C)/C=C/C=C/C=C/1C` (as salt: ammonium) [Compound 11, Rapa-31-ester of 2-(4-methylpyridinium-1-yl)acetic Acid] registered a melting point of 145 to 148 °C.

In turn, `CO[C@H]1C[C@@H]2CC[C@@H](C)[C@@](O)(O2)C(=O)C(=O)N2CCCC[C@H]2C(=O)O[C@H]([C@H](C)C[C@@H]2CC[C@@H](OC(=O)C[n+]3cccc(C)c3)[C@H](OC)C2)CC(=O)[C@H](C)/C=C(\C)[C@@H](O)[C@@H](OC)C(=O)[C@H](C)C[C@H](C)/C=C/C=C/C=C/1C` (as salt: ammonium) [Compound 4, Rapa-42-ester of 2-(3-methylpyridinium-1-yl)acetic Acid] came in with a melting point of 138 to 140 °C.

On to `CO[C@H]1C[C@@H]2CC[C@@H](C)[C@@](O)(O2)C(=O)C(=O)N2CCCC[C@H]2C(=O)O[C@H]([C@H](C)C[C@@H]2CC[C@@H](OC(=O)C[n+]3csc(C)c3C)[C@H](OC)C2)CC(=O)[C@H](C)/C=C(\C)[C@@H](O)[C@@H](OC)C(=O)[C@H](C)C[C@H](C)/C=C/C=C/C=C/1C` [Compound 1, Rapa-42-ester of 2-(4,5-dimethylthiazolium-3-yl)acetic Acid], for which, in the series “Aqueous solubility”, the “Times Increased of Aqueous Solubility” value is 1615 and the concentration in solution (solubility) came to 4200 µg/mL.

Take `CO[C@H]1C[C@@H]2CC[C@@H](C)[C@@](O)(O2)C(=O)C(=O)N2CCCC[C@H]2C(=O)O[C@H]([C@H](C)C[C@@H]2CC[C@@H](O)[C@H](OC)C2)CC(=O)[C@H](C)/C=C(\C)[C@@H](OC(=O)C[n+]2csc(C)c2C)[C@@H](OC)C(=O)[C@H](C)C[C@H](C)/C=C/C=C/C=C/1C` [Compound 7, Rapa-31-ester of 2-(4,5-dimethylthiazolium-3-yl)acetic Acid]: in the series “Aqueous solubility”, the “Times Increased of Aqueous Solubility” value is on record as 8962 and the concentration in solution (solubility) came to 23300 µg/mL.

`CO[C@H]1C[C@@H]2CC[C@@H](C)[C@@](O)(O2)C(=O)C(=O)N2CCCC[C@H]2C(=O)O[C@H]([C@H](C)C[C@@H]2CC[C@@H](OC(=O)C[n+]3ccccc3)[C@H](OC)C2)CC(=O)[C@H](C)/C=C(\C)[C@@H](O)[C@@H](OC)C(=O)[C@H](C)C[C@H](C)/C=C/C=C/C=C/1C` (as salt: ammonium) [Compound 3, Rapa-42-ester of 2-(pyridinium-1-yl)acetic Acid] registered a melting point of 135 to 137 °C.

For the compound `CO[C@H]1C[C@@H]2CC[C@@H](C)[C@@](O)(O2)C(=O)C(=O)N2CCCC[C@H]2C(=O)O[C@H]([C@H](C)C[C@@H]2CC[C@@H](OC(=O)C[n+]3cscc3C)[C@H](OC)C2)CC(=O)[C@H](C)/C=C(\C)[C@@H](O)[C@@H](OC)C(=O)[C@H](C)C[C@H](C)/C=C/C=C/C=C/1C` [Compound 2, Rapa-42-ester of 2-(4-methylthiazolium-3-yl)acetic Acid], in “Aqueous solubility”, the “Times Increased of Aqueous Solubility” value amounted to 11 and the solubility was found to be 28 µg/mL.

In the case of `CO[C@H]1C[C@@H]2CC[C@@H](C)[C@@](O)(O2)C(=O)C(=O)N2CCCC[C@H]2C(=O)O[C@H]([C@H](C)C[C@@H]2CC[C@@H](OC(=O)C[n+]3ccccc3)[C@H](OC)C2)CC(=O)[C@H](C)/C=C(\C)[C@@H](O)[C@@H](OC)C(=O)[C@H](C)C[C@H](C)/C=C/C=C/C=C/1C` [Compound 3, Rapa-42-ester of 2-(pyridinium-1-yl)acetic Acid], in “Aqueous solubility”, the “Times Increased of Aqueous Solubility” value is reported as 10 and the solubility was 25 µg/mL.

Consider `CO[C@H]1C[C@@H]2CC[C@@H](C)[C@@](O)(O2)C(=O)C(=O)N2CCCC[C@H]2C(=O)O[C@H]([C@H](C)C[C@@H]2CC[C@@H](O)[C@H](OC)C2)CC(=O)[C@H](C)/C=C(\C)[C@@H](OC(=O)C[n+]2cccc(C)c2)[C@@H](OC)C(=O)[C@H](C)C[C@H](C)/C=C/C=C/C=C/1C` [Compound 9, Rapa-31-ester of 2-(3-methylpyridinium-1-yl)acetic Acid], for which, in “Aqueous solubility”, the “Times Increased of Aqueous Solubility” value is listed as 10269 and the concentration in solution (solubility) was 26700 µg/mL.

For the origin of these results see PMC6271078 (Molecules, 2014).
